# Measured values: ChEMBL document CHEMBL4017503, “Identification of a New Zinc Binding Chemotype by Fragment Screening” (J Med Chem, 2017)
# Test system: not listed separately
# Assay: Dissociation constant, pKa of the compound
# Type: physicochemical
row,pKa,Compound
1,5.5,O=C1NC(=O)C(c2ccccc2)O1 (stereo not given) [PEMOLINE DIONE]

# Target: Carbonic anhydrase 2 (Homo sapiens, UniProt P00918)
# Assay: Binding affinity to human carbonic anhydrase 2 by surface plasmon resonance spectrometry
row,Compound,Kd [µM]
1,O=C1NC(=O)C(Cc2ccccc2)N1 (stereo not given),> 2000
2,CN1C(=O)OC(C)(C)C1=O [TRIMETHADIONE],> 2000
3,CC1(C)OC(=O)NC1=O [DIMETHADIONE],> 2000

# More lines, now with the values ahead:
row,Kd [µM],Compound
1,> 2000,COc1ccc(CC2NC(=O)NC2=O)c(OC)c1 (stereo not given)
2,> 2000,COc1ccc(/C=C2\NC(=O)NC2=O)c(OC)c1
3,> 2000,O=C1NC(=O)/C(=C/c2ccccc2)N1
4,> 2000,O=C1NC(=O)C(c2ccccc2)N1 (stereo not given)
5,> 2000,COc1ccc(/C=C2\NC(=S)NC2=O)c(OC)c1
6,> 2000,COc1ccc(/C=C2\SC(=O)NC2=O)c(OC)c1
